# Data: publication PMC12542666, “Mechanistic insights into the dimethylsulfoniopropionate synthesis enzyme BurB” (Applied and Environmental Microbiology, 2025)
# Where two headings read alike, the source gives them in different places.
# Assays:
# BurB = assay type: biochemical, Burkholderia thailandensis
# [1] = target: BurB from Burkholderia thailandensis (Burkholderia thailandensis); assay: SEC
molecule,measurement,setting,value
CSCC[C@H](N)C(=O)O [Met],Km,"BurB; pH 9.0, 40 °C",16.6 mM
C[S+](CC[C@H](N)C(=O)O)C[C@H]1O[C@@H](n2cnc3c(N)ncnc32)[C@H](O)[C@@H]1O (stereo partly drawn) [SAM],Km,BurB,1.8 mM
BurB from Burkholderia thailandensis (enzyme),stoichiometry N,[1],4
